Laboratory results published in the NIST ThermoML archive (doi:10.1021/je300083m).
Numbers after ± are expanded uncertainties.

Experiment: mn = molality of the nth substance listed, in mol/kg
Conditions: 101 kPa, Liquid, m1 = 0.512

Compound | mass density (298.15 K) | mass density (303.15 K) | mass density (308.15 K) | mass density (313.15 K) | mass density (318.15 K) | mass density (323.15 K)
O=[N+]([O-])[O-].[K+] [potassium nitrate] + O | 1027.98 ± 0.22 kg/m3 | 1026.22 ± 0.22 kg/m3 | 1024.1 ± 0.21 kg/m3 | 1022.05 ± 0.21 kg/m3 | 1020.2 ± 0.21 kg/m3 | 1018.2 ± 0.2 kg/m3
O=S(=O)([O-])[O-].[K+].[K+] [potassium sulfate] + O | 1063.81 ± 0.3 kg/m3 | 1062.02 ± 0.29 kg/m3 | 1060.06 ± 0.29 kg/m3 | 1057.74 ± 0.29 kg/m3 | 1055.14 ± 0.28 kg/m3 | 1052.95 ± 0.28 kg/m3
